Patent US20220073942A1, “Cells with reduced inhibitor production and methods of use thereof” (PFIZER INC., priority 2018, published 2022)
Where two headings read alike, the source gives them in different places.

Columns and labels:
CHO cells (cell line B) = assay: Effect of glycerol on growth (viable cell density) of CHO cells in 6-well plate culture; assay type: cell-based, Chinese hamster; settings: fresh Medium A supplemented with glycerol at 0, 2 and 4 mM, growth monitored for 5 or 6 days, FIG. 3A
CHO cells (cell line A) = settings: fresh Medium A supplemented with formate at 0, 2, 4 and 6 mM, growth monitored for 5 or 6 days, FIG. 3B
Experimental: CHO cells (cell line A or cell line B) producing a recombinant antibody were inoculated at low cell densities (0.1 E6 cells/mL) in various conditions in triplicates in 6-well plate cultures. The working volume for each well on day 0 was 4 mL. Cell line A was inoculated either in fresh Medium A or fresh Medium A supplemented with formate at various concentrations. Cell line B was inoculated either in fresh Medium A or fresh Medium A supplemented with glycerol at various concentrations. The concentrations tested for formate were [0, 2, 4 and 6 mM] and for glycerol were [0, 2 and 4 mM]. The 6-well plates were incubated on a shaking platform in 36.5C and 5% carbon dioxide. Cell growth in all the conditions was monitored for 5 or 6 days.

SMILES | concentration at which cell growth was suppressed (CHO cells (cell line B)) | concentration at which cell growth was suppressed (CHO cells (cell line B); listed as Glycerol) [mM] | concentration at which cell growth was suppressed (CHO cells (cell line A)) | concentration at which cell growth was suppressed (CHO cells (cell line A); listed as Formate) [mM]
OCC(O)CO [glycerol] | higher than 2 mM | ≥ 2 |  | 
O=CO [formate] |  |  | higher than 2 mM | ≥ 2
